Results published in ChEMBL document CHEMBL3822441, “Azadirachta indica triterpenoids promote osteoblast differentiation and mineralization in vitro and in vivo” (2016).
The source made the active and inactive calls. The calls are words filed in the database; no cut-off is given here.

Columns and labels:
Calvarial osteoblast [1] = assay: Osteogenic activity in rat primary calvarial osteoblasts at 100 pM after 48 hrs by ALP-based colorimetric assay; assay type: functional, cell-based
Calvarial osteoblast [2] = assay: Induction of cell proliferation in rat primary calvarial osteoblasts at 0.1 to 10 nM after 48 hrs by BrDU-staining based assay relative to control; assay type: functional
Calvarial osteoblast [3] = assay: Induction of mineralization in rat primary calvarial osteoblasts assessed as mineralized nodule formation at 10 to 1000 nM after 12 days by alizarin red S-staining based assay relative to control; assay type: functional, cell-based
[4] = Upregulation of RunX-2 mRNA expression in rat primary calvarial osteoblasts at 100 pM by RT-PCR analysis relative to control; assay type: functional, cell-based; details: Calvarial osteoblast
[5] = Upregulation of OCN mRNA expression in rat primary calvarial osteoblasts at 100 pM by RT-PCR analysis relative to control; assay type: functional, cell-based; details: Calvarial osteoblast
[6] = Upregulation of ALP mRNA expression in rat primary calvarial osteoblasts at 100 pM by RT-PCR analysis relative to control; assay type: functional, cell-based; details: Calvarial osteoblast
Calvarial osteoblast [7] = assay: Osteogenic activity in rat primary calvarial osteoblasts at 1 pM after 48 hrs by ALP-based colorimetric assay; assay type: functional, cell-based
Calvarial osteoblast [8] = assay: Osteogenic activity in rat primary calvarial osteoblasts at 10 nM after 48 hrs by ALP-based colorimetric assay; assay type: functional, cell-based
Calvarial osteoblast [9] = assay: Induction of cell proliferation in rat primary calvarial osteoblasts at 10 nM nM after 48 hrs by BrDU-staining based assay relative to control; assay type: functional
Calvarial osteoblast [10] = assay: Induction of mineralization in rat primary calvarial osteoblasts assessed as mineralized nodule formation at 0.001 to 10 nM after 12 days by alizarin red S-staining based assay relative to control; assay type: functional, cell-based
Rattus norvegicus [11] = assay: Osteogenic activity in rat assessed as upregulation of ALP mRNA expression in calvarial osteoblasts at 5 mg/kg/day, sc dosed for 3 days by RT-PCR analysis relative to control; assay type: functional
Rattus norvegicus [12] = assay: Osteogenic activity in rat assessed as upregulation of RunX-2 mRNA expression in calvarial osteoblasts at 0.5 mg/kg/day, sc dosed for 3 days by RT-PCR analysis relative to control; assay type: functional
Rattus norvegicus [13] = assay: Osteogenic activity in rat assessed as upregulation of RunX-2 mRNA expression in calvarial osteoblasts at 1 mg/kg/day, sc dosed for 3 days by RT-PCR analysis relative to control; assay type: functional
Rattus norvegicus [14] = assay: Osteogenic activity in rat assessed as upregulation of RunX-2 mRNA expression in calvarial osteoblasts at 5 mg/kg/day, sc dosed for 3 days by RT-PCR analysis relative to control; assay type: functional
Rattus norvegicus [15] = assay: Osteogenic activity in rat assessed as upregulation of RunX-2 mRNA expression in calvarial osteoblasts at 10 mg/kg/day, sc dosed for 3 days by RT-PCR analysis relative to control; assay type: functional
Rattus norvegicus [16] = assay: Osteogenic activity in rat assessed as upregulation of COL-1 mRNA expression in calvarial osteoblasts at 1 mg/kg/day, sc dosed for 3 days by RT-PCR analysis relative to control; assay type: functional
Rattus norvegicus [17] = assay: Osteogenic activity in rat assessed as upregulation of COL-1 mRNA expression in calvarial osteoblasts at 5 mg/kg/day, sc dosed for 3 days by RT-PCR analysis relative to control; assay type: functional
Rattus norvegicus [18] = assay: Induction of bone formation in rat assessed as increase in mineral appositional rate in calvarial osteoblasts at 1 mg/kg/day, sc dosed for 3 days by dynamic histomorphometric analysis relative to control; assay type: functional
Rattus norvegicus [19] = assay: Induction of bone formation in rat assessed as increase in mineral appositional rate in calvarial osteoblasts at 5 mg/kg/day, sc dosed for 3 days by dynamic histomorphometric analysis relative to control; assay type: functional
Rattus norvegicus [20] = assay: Induction of bone formation in rat assessed as increase in bone-formation rate in calvarial osteoblasts at 1 mg/kg/day, sc dosed for 3 days by dynamic histomorphometric analysis relative to control; assay type: functional
Rattus norvegicus [21] = assay: Induction of bone formation in rat assessed as increase in bone-formation rate in calvarial osteoblasts at 5 mg/kg/day, sc dosed for 3 days by dynamic histomorphometric analysis relative to control; assay type: functional
Rattus norvegicus [22] = assay: Induction of bone formation in rat assessed as increase in bone-formation rate in calvarial osteoblasts at 10 mg/kg/day, sc dosed for 3 days by dynamic histomorphometric analysis relative to control; assay type: functional
[23] = Upregulation of RunX-2 mRNA expression in rat primary calvarial osteoblasts at 10 nM by RT-PCR analysis relative to control; assay type: functional, cell-based; details: Calvarial osteoblast
[24] = Upregulation of ALP mRNA expression in rat primary calvarial osteoblasts at 10 nM […] by RT-PCR analysis relative to control; assay type: functional, cell-based; details: Calvarial osteoblast
[25] = Upregulation of OCN mRNA expression in rat primary calvarial osteoblasts at 10 nM by RT-PCR analysis relative to control; assay type: functional, cell-based; details: Calvarial osteoblast

With `CC(=O)O[C@@H]1C[C@H]2C(C)(C)C(=O)C=C[C@]2(C)[C@H]2CC[C@]3(C)C(=CC[C@H]3c3ccoc3)[C@@]21C` the Activity (Calvarial osteoblast [1]) was “Active”, the Activity (Calvarial osteoblast [2]) was “Active” and the Activity (Calvarial osteoblast [3]) was “Active”. For the same compound, the fold change (FC) [4] was 2.7, the fold change (FC) [5] was 2.3 and the Activity [6] was “inactive”.
For `C/C=C(\C)C(=O)O[C@H]1C[C@@H](OC(C)=O)[C@@]2(C)CO[C@H]3[C@H]4O[C@@H]5C[C@@H](c6ccoc6)C(C)=C5[C@@]4(C)[C@H](CC(=O)OC)[C@]1(C)[C@@H]32`, the Activity (Calvarial osteoblast [7]) was “Active”.
In the case of `CC(=O)O[C@@H]1C[C@H]2C(C)(C)C(=O)C=C[C@]2(C)[C@H]2CC[C@@]3(C)[C@H](c4ccoc4)C(=O)[C@H]4O[C@]43[C@@]21C`, the Activity (Calvarial osteoblast [8]) is reported as “Active”.
For `C[C@]12CC[C@@H]3c4ccc(O)cc4CC[C@H]3[C@@H]1CC[C@@H]2O`, the Activity (Calvarial osteoblast [9]) was “Active”.
For `C/C=C(\C)C(=O)O[C@H]1C[C@@H](OC(C)=O)[C@@]2(C(=O)OC)CO[C@H]3[C@@H](O)[C@@](C)([C@@]45O[C@@]4(C)[C@H]4C[C@@H]5O[C@@H]5OC=C[C@@]54O)[C@H]4[C@]1(CO[C@]4(O)C(=O)OC)[C@@H]32`, the Activity (Calvarial osteoblast [1]) was “Active”, the Activity (Calvarial osteoblast [2]) was “Active” and the Activity (Calvarial osteoblast [10]) was “Active”. For the same compound, the fold change (FC) [4] was 3.5, the fold change (FC) [5] was 3 and the fold change (FC) [6] was 4.5. The “fold change (FC)” value (Rattus norvegicus [11]) was 2, the “fold change (FC)” value (Rattus norvegicus [12]) was 5 and the “fold change (FC)” value (Rattus norvegicus [13]) was 7. The “fold change (FC)” value (Rattus norvegicus [14]) was 7.5, the “fold change (FC)” value (Rattus norvegicus [15]) was 3 and the “fold change (FC)” value (Rattus norvegicus [16]) was 7. The “fold change (FC)” value (Rattus norvegicus [17]) was 3.5, the “fold change (FC)” value (Rattus norvegicus [18]) was 3.4 and the “fold change (FC)” value (Rattus norvegicus [19]) was 4. For the same compound, the “fold change (FC)” value (Rattus norvegicus [20]) was 4, the “fold change (FC)” value (Rattus norvegicus [21]) was 5 and the “fold change (FC)” value (Rattus norvegicus [22]) was 3.2.
With `C/C=C(\C)C(=O)O[C@@H]1C[C@H](O)[C@]23CO[C@H](C(=O)OC)[C@H]2[C@](C)([C@]24O[C@@]2(C)[C@H]2C[C@@H]4O[C@@H]4OC=C[C@@]42O)[C@H](O)[C@@H]2OC[C@@]1(C(=O)OC)[C@H]23` the Activity (Calvarial osteoblast [1]) was “Active”, the Activity (Calvarial osteoblast [2]) was “Active” and the Activity (Calvarial osteoblast [10]) was “Active”. For the same compound, the fold change (FC) [6] was 2.8, the fold change (FC) [23] was 2.5 and the fold change (FC) [24] was 2.8. The fold change (FC) [25] was 2.5.
